# Assay results as given in paper PMC10959927, “Platinum iodido drugs show potential anti-tumor activity, affecting cancer cell metabolism and inducing ROS and senescence in gastrointestinal cancer cells” (Communications Biology, 2024).
# Several values for one entry are separate records, joined by “and”; a condition that tells them apart may be missing. Equal values may be shown once.
# Experiments:
# Assay type in all cases: cell-based, human
# MKN45 cells [1] = test: Lactate production assay; conditions: replicates
# Procedure: (§1) Lactate production assay. […] Proteins were removed from 50 μL of the medium by adding 100 μL of 8% Percloric Acid and 40% EtOH at 4 °C, and centrifuging at 2 × 10^4 g for 10 min at 4 °C. The supernatants were then frozen until the lactate in 15 μL of each sample, or lactate standard, was measured mixed with 150 μl of assay buffer (0.5 M glycine [pH 9.5], 0.2 M Hydrazine, 3.4 mM EDTA), 100 μl of H20, 5 μL of 1100 U/mL LDH (Roche) and 30 μL of 15 mM NAD + . NADH production was evaluated by measuring absorbance at 340 nm in a multiplate reader (Synergy HT, Biotek) and it was proportional to the lactic acid concentration in the sample after a 2 h incubation. The lactate concentration was normalized to the total amount of protein measured with the Micro BCA Protein Assay Kit (Thermo Scientific). Assays were performed in triplicate in three independent experiments.
# PANC1 cells [2] = test: Lactate production assay; conditions: replicates
# Procedure: as §1
# AGS cells [3] = test: Lactate production assay; conditions: replicates
# Procedure: as §1
# PANC1 cells [4] = test: ROS detection by confocal microscopy (DHE, MitoSox); conditions: PANC1, 1 h treatment; H2O2 200 µM, CDDP 10 µM, I5 20 µM, I6 20 µM
# Procedure: Tumor cells were seeded at a density of 3 × 10^5 cells in 15 µm 8-well IBIDI plates and incubated overnight. […] Subsequently, cells were stained with 10 μM of dihydroethidium (DHE, cytosolic O2^·- probe, Sigma-Aldrich) or with 5 μM of Mitosox (mitochondrial O2^·- probe, Sigma-Aldrich) for 15–30 min[79] and then visualized on a confocal microscope (Confocal LSM 710 Zeiss, Biomedical Research Institute Alberto Sols, IIBm-CSIC-UAM, Madrid, Spain). The image analysis was realized using the software program Image J.
# AGS cells [5] = test: Seahorse XF OCR, ECAR and energy map
# Procedure: (§2) Oxygen Consumption Rate (OCR), Extra Cellular Acidification Rate (ECAR) and Energy map measurements. Cells were plated in XF HS Miniplates (Seahorse Bioscience) at a cellular density of 1 × 10^4 cells/well and incubated overnight. […] After an OCR baseline measurement, the minimum oxygen consumption was determined by adding 1.5 µM oligomycin (O) and the maximal respiration rate was assessed by adding 1 µM carbonyl cyanide p-trifluoro methoxyphenylhydrazone (FCCP, F). At the end of the experiment, the non-mitochondrial oxygen consumption was evaluated by adding both 0.5 µM rotenone (R) and antimycin (A). Experiments were run in a XF HS Mini analyzer (Seahorse Agilent), and raw data were normalized to total protein using a BCA protein assay kit (Cat. no. 23225, Thermo Scientific).
# MKN45 cells [6] = test: Seahorse XF OCR, ECAR and energy map; parameters: Basal resp. / Maximal resp. / SRC: unit not given here
# Procedure: as §2
structure (smiles),measurement,setting,value
"CC(C)[NH][Pt@SP1]([I])([I])[NH]C(C)C [I6, cis-[PtI2(isopropylamine)2]]",lactate assay,MKN45 cells [1],3.98 Lactate mM/mg prot and 8.05 Lactate mM/mg prot and 7.53 Lactate mM/mg prot and 3.819 Lactate mM/mg prot and 1.91 Lactate mM/mg prot and 4.092 Lactate mM/mg prot and 2.56 Lactate mM/mg prot and 2.5 Lactate mM/mg prot and 2.54 Lactate mM/mg prot
same,lactate assay,PANC1 cells [2],11.33 Lactate mM/mg prot and 12.9 Lactate mM/mg prot and 10.14 Lactate mM/mg prot and 5.296 Lactate mM/mg prot and 5.829 Lactate mM/mg prot and 4.94 Lactate mM/mg prot and 4.32 Lactate mM/mg prot and 4.21 Lactate mM/mg prot and 4.26 Lactate mM/mg prot
same,lactate assay,AGS cells [3],3.22 Lactate mM/mg prot and 1.52 Lactate mM/mg prot and 3.74 Lactate mM/mg prot and 3.2668 Lactate mM/mg prot and 2.67 Lactate mM/mg prot and 5.511 Lactate mM/mg prot and 0.01 Lactate mM/mg prot and 0.02 Lactate mM/mg prot and 0.03 Lactate mM/mg prot
same,"DHE fluorescence intensity (per cell), cytosolic O2•−",PANC1 cells [4],98.4842 and 86.3637 and 85.797 and 82.1548 and 76.0203 and 75.3191
same,"Mitosox fluorescence intensity (per cell), mitochondrial O2•−",PANC1 cells [4],91.9093 and 80.7891 and 70.3911 and 69.2294 and 66.6051 and 57.9644
same,"ECAR, Mean (energy map)",AGS cells [5]; AGS (with I5),23.74 mpH/min/absorbance
same,"OCR, Mean (energy map)",AGS cells [5]; AGS (with I5),42.84 pmol/min/absorbance
same,ECAR (energy map),AGS cells [5]; AGS (with I6),45.46 mpH/min/absorbance
same,"ECAR, Mean (energy map)",AGS cells [5]; AGS (with I6),48.0093 mpH/min/absorbance
same,OCR (energy map),AGS cells [5]; AGS (with I6),48.01 pmol/min/absorbance
same,"OCR, Mean (energy map)",AGS cells [5]; AGS (with I6),45.4641 pmol/min/absorbance
same,effect on ECAR,"AGS cells [5]; AGS, IC50 24 h",no apparent effect
same,OCR,"AGS cells [5]; AGS, IC50 24 h, time 1.53 min (I5) / 1.53 min (I6)",30.1319 pmoles/min/µg protein and 31.3797 pmoles/min/µg protein and 53.7109 pmoles/min/µg protein
same,OCR,"AGS cells [5]; AGS, IC50 24 h, time 8.04 min (I5) / 8.02 min (I6)",24.9329 pmoles/min/µg protein and 27.5046 pmoles/min/µg protein and 48.0298 pmoles/min/µg protein
same,OCR,"AGS cells [5]; AGS, IC50 24 h, time 14.54 min (I5) / 14.51 min (I6)",26.4797 pmoles/min/µg protein and 27.4562 pmoles/min/µg protein and 48.9415 pmoles/min/µg protein
same,OCR,"AGS cells [5]; AGS, IC50 24 h, time 21.13 min (I5) / 21.08 min (I6)",22.9934 pmoles/min/µg protein and 21.9038 pmoles/min/µg protein and 30.7096 pmoles/min/µg protein
same,OCR,"AGS cells [5]; AGS, IC50 24 h, time 27.59 min (I5) / 27.57 min (I6)",20.5189 pmoles/min/µg protein and 20.6073 pmoles/min/µg protein and 30.1901 pmoles/min/µg protein
same,OCR,"AGS cells [5]; AGS, IC50 24 h, time 34.07 min (I5) / 34.06 min (I6)",21.4481 pmoles/min/µg protein and 20.5528 pmoles/min/µg protein and 31.2982 pmoles/min/µg protein
same,OCR,"AGS cells [5]; AGS, IC50 24 h, time 60.15 min (I5) / 60.16 min (I6)",12.0701 pmoles/min/µg protein and 11.1961 pmoles/min/µg protein and 18.1823 pmoles/min/µg protein
same,OCR,"AGS cells [5]; AGS, IC50 24 h, time 66.63 min (I5) / 66.65 min (I6)",12.0579 pmoles/min/µg protein and 11.0677 pmoles/min/µg protein and 17.3668 pmoles/min/µg protein
same,OCR,"AGS cells [5]; AGS, IC50 24 h, time 73.12 min (I5) / 73.14 min (I6)",11.7846 pmoles/min/µg protein and 9.533 pmoles/min/µg protein and 17.3382 pmoles/min/µg protein
same,"ECAR, Mean (energy map)",MKN45 cells [6]; MKN45 (with I5),17.85 mpH/min/absorbance
same,"OCR, Mean (energy map)",MKN45 cells [6]; MKN45 (with I5),73.36 pmol/min/absorbance
same,ECAR (energy map),MKN45 cells [6]; MKN45 (with I6),73.12 mpH/min/absorbance
same,"ECAR, Mean (energy map)",MKN45 cells [6]; MKN45 (with I6),230.729 mpH/min/absorbance
same,OCR (energy map),MKN45 cells [6]; MKN45 (with I6),230.7 pmol/min/absorbance
same,"OCR, Mean (energy map)",MKN45 cells [6]; MKN45 (with I6),73.1182 pmol/min/absorbance
same,ATP-product. coupled resp.,"MKN45 cells [6]; MKN45, IC50 24 h",104.06 and 161.5 and 167.13
same,Basal resp.,"MKN45 cells [6]; MKN45, IC50 24 h",127.94 and 199.95 and 209.1
same,Maximal resp.,"MKN45 cells [6]; MKN45, IC50 24 h",239.39 and 365.62 and 377.71
same,SRC,"MKN45 cells [6]; MKN45, IC50 24 h",111.45 and 165.66 and 168.61
same,effect on ECAR,"MKN45 cells [6]; MKN45, IC50 24 h",no apparent effect
same,OCR,"MKN45 cells [6]; MKN45, IC50 24 h, time 1.53 min (I5) / 1.53 min (I6)",147.857 pmoles/min/µg protein and 218.375 pmoles/min/µg protein and 227.071 pmoles/min/µg protein
same,OCR,"MKN45 cells [6]; MKN45, IC50 24 h, time 8.04 min (I5) / 8.03 min (I6)",138.707 pmoles/min/µg protein and 201.479 pmoles/min/µg protein and 205.427 pmoles/min/µg protein
